Results as given in US20240139333A1, “2,6-DICHLOROPHENYL ESTER COMPOUNDS AND USE THEREOF” (Fusion Pharmaceuticals Inc., priority 2021, published 2024).

Tests used:
[1] = Nucleophilic reactivity study with L-Lysine; conditions: L-Lysine 5 equiv, 22±2° C.
Experimental: General Experimental Protocol for Nucleophilic Reactivity Study with L-Lysine
To a 4 mL scintillation vial containing Compound A-E (in respective experiments; 1 eq.) was added a stir bar followed by 70 μL of HPLC grade acetonitrile. In another 4 mL scintillation vial containing L-Lysine monohydrochloride (5 eq.) was added 130 μL HPLC grade water followed by diisopropylethylamine (5 eq.). The solutions were combined and allowed to stir at room temperature (22±2° C.). Timed aliquots at time (T)=15, 30, 60 and 120 minutes were taken and analyzed by HPLC-MS using elution method 1 (Table 2).

[2] = Comparative active ester reactivity study with HOA nucleophile (N-hydroxy-N-methylbenzamide); conditions: N-Hydroxy-N-methylbenzamide 1 eq., 22±2° C.
Experimental: (§1) General Experimental Protocol for Comparative Active Ester Reactivity Study with HOPO or HOA Nucleophiles
(§2) To a 4 mL scintillation vial containing Compound A-E (in respective experiments; 1 eq.) was added a stir bar followed by 150 μL of HPLC grade acetonitrile. In another 4 mL scintillation vial containing a respective nucleophile (1 eq.) was added 280 μL HPLC grade water. The solutions were combined and allowed to stir at room temperature (22±2° C.) for 4 hours. Timed aliquots at time (T)=15, 30, 60, 120 and 240 minutes were taken and analyzed by HPLC-MS using elution method 1 (Table 1).

[3] = Comparative active ester reactivity study with HOA nucleophile (benzhydroxamic acid); conditions: Benzhydroxamic Acid 1 eq., 22±2° C.
Experimental: as §1, §2

[4] = pH stability study; format: physicochemical; conditions: 20° C.
Experimental: To a 4 mL scintillation vial containing Compound A-E (in respective experiments; 0.8 mg) was added 4 mL of either a pH 3, pH 5 pH 7 or pH 9 buffer to create a 0.2 mg/mL solution. 2 mL of this solution was added to a 2 mL HPLC vial and placed in the auto sampler of an HPLC-MS at 20° C. Timed aliquots at time (T)=15, 30, 60, 120, 240 and 480 minutes were taken and analyzed by HPLC-MS using elution method 1 (Table 3). […]
pH 3 Buffer: Citric acid/Na2HPO4 (79.45 mL 0.1 M-citric acid and 20.55 mL 0.2-Na2HPO4) pH 5 Buffer: Citric acid/Na2HPO4 (48.50 mL 0.1 M-citric acid and 51.50 mL 0.2-Na2HPO4) pH 7 Buffer: Citric acid/Na2HPO4 (17.65 mL 0.1 M-citric acid and 82.35 mL 0.2-Na2HPO4) pH 9 Buffer: Sodium Carbonate/Sodium Bicarbonate (10 mL 0.1 M-Na2CO3 and 90 mL 0.1-NaHCO3)

[5] = DMSO stability study; format: physicochemical
Experimental: To a 4 mL scintillation vial containing Compound A-E (in respective experiments; 4 mg) was added a stir bar followed by 500 μL of anhydrous dimethyl sulfoxide and was allowed to stir at room temperature (22±2° C.) for 4 hours. Timed aliquots at time (T)=15, 30, 60, 120 and 240 minutes were taken, dissolved in water to achieve 2% DMSO composition and analyzed by HPLC-MS using elution method 1 (Table 5).

[6] = Comparative active ester reactivity study with HOPO nucleophile; conditions: 1,2-HOPO 1 eq., 22±2° C.
Experimental: as §1, §2

[7] = Temperature stability study in H2O; format: physicochemical
Experimental: 20° C.: To a 4 mL scintillation vial containing Compound A-E (in respective experiments; 0.8 mg) was added 4 mL of HPLC grade water to create a 0.2 mg/mL solution. 2 mL of this solution was added to a 2 mL HPLC vial and placed in the auto sampler of an HPLC-MS at 20° C. Timed aliquots at time (T)=15, 30, 60, 120, 240 and 480 minutes were taken and analyzed by HPLC-MS using elution method 1 (Table 4).
50° C.: To a 4 mL scintillation vial containing Compound A-E (in respective experiments; 0.8 mg) was added a stir bar followed by 4 mL of HPLC grade water to create a 0.2 mg/mL solution. The vial was capped and allowed to stir in a 50° C. oil bath for 8 hours. Timed aliquots at time (T) =15, 30, 60, 120, 240 and 480 minutes were taken and analyzed by HPLC-MS using elution method 1 (Table 4).

% Active Ester Remaining ([1]; 15 min): 0.20% | % Active Ester Remaining ([1]; 30 min): 0% | % Active Ester Remaining ([2]; 15 min): 91.32% | % Active Ester Remaining ([2]; 30 min): 84.96% | % Active Ester Remaining ([2]; 60 min): 73.90% | % Active Ester Remaining ([2]; 120 min): 56.72% | % Active Ester Remaining ([2]; 240 min): 35.97% | % Active Ester Remaining ([3]; 15 min): 81.80% | % Active Ester Remaining ([3]; 30 min): 69.62% | % Active Ester Remaining ([3]; 60 min): 56.57% | % Active Ester Remaining ([3]; 120 min): 42.81% | % Active Ester Remaining ([3]; 240 min): 28.60% | % Remaining ([4]; pH 3 buffer, 15 min): 100% | % Remaining ([4]; pH 3 buffer, 30 min): 99.56% | % Remaining ([4]; pH 3 buffer, 60 min): 99.19% | % Remaining ([4]; pH 3 buffer, 120 min): 98.69% | % Remaining ([4]; pH 3 buffer, 240 min): 97.41% | % Remaining ([4]; pH 3 buffer, 480 min): 95.05% | % Remaining ([4]; pH 5 buffer, 15 min): 100% | % Remaining ([4]; pH 5 buffer, 30 min): 99.50% | % Remaining ([4]; pH 5 buffer, 60 min): 99.05% | % Remaining ([4]; pH 5 buffer, 120 min): 98.27% | % Remaining ([4]; pH 5 buffer, 240 min): 96.36% | % Remaining ([4]; pH 5 buffer, 480 min): 92.97% | % Remaining ([4]; pH 7 buffer, 15 min): 99.35% | % Remaining ([4]; pH 7 buffer, 30 min): 98.45% | % Remaining ([4]; pH 7 buffer, 60 min): 97.44% | % Remaining ([4]; pH 7 buffer, 120 min): 95.40% | % Remaining ([4]; pH 7 buffer, 240 min): 91.66% | % Remaining ([4]; pH 7 buffer, 480 min): 84.15% | % Remaining ([4]; pH 9 buffer, 15 min): 78.39% | % Remaining ([4]; pH 9 buffer, 30 min): 65.31% | % Remaining ([4]; pH 9 buffer, 60 min): 54.47% | % Remaining ([4]; pH 9 buffer, 120 min): 38.67% | % Remaining ([4]; pH 9 buffer, 240 min): 19.98% | % Remaining ([4]; pH 9 buffer, 480 min): 5.01% | % Active Ester Remaining in DMSO at 22 ± 2° C. ([5]; 15 min): 99.89% | % Active Ester Remaining in DMSO at 22 ± 2° C. ([5]; 30 min): 99.81% | % Active Ester Remaining in DMSO at 22 ± 2° C. ([5]; 60 min): 99.79% | % Active Ester Remaining in DMSO at 22 ± 2° C. ([5]; 120 min): 99.78% | % Active Ester Remaining in DMSO at 22 ± 2° C. ([5]; 240 min): 99.46% | % Active Ester Remaining ([6]; 15 min): 98.85% | % Active Ester Remaining ([6]; 30 min): 96.23% | % Active Ester Remaining ([6]; 60 min): 90.85% | % Active Ester Remaining ([6]; 120 min): 84.98% | % Active Ester Remaining ([6]; 240 min): 69.55% | % Remaining ([7]; 20° C., 15 min): 99.63% | % Remaining ([7]; 20° C., 30 min): 99.20% | % Remaining ([7]; 20° C., 60 min): 98.92% | % Remaining ([7]; 20° C., 120 min): 98.12% | % Remaining ([7]; 20° C., 240 min): 96.98% | % Remaining ([7]; 20° C., 480 min): 95.14% | % Remaining ([7]; 50° C., 15 min): 97.57% | % Remaining ([7]; 50° C., 30 min): 92.71% | % Remaining ([7]; 50° C., 60 min): 89.62% | % Remaining ([7]; 50° C., 120 min): 85.20% | % Remaining ([7]; 50° C., 240 min): 79.93% | % Remaining ([7]; 50° C., 480 min): 68.06%
SMILES: O=C(CCc1cccnc1)Oc1c(F)cccc1F [Compound B, 2,6-Difluorophenyl-3-(pyridin-3-yl)propanoate]
